This passage reports melting point results from patent publication US7582627B2, “3-aminoquinazolin-2,4-dione antibacterial agents” (Warner-Lambert Company, priority 2000, dated 2009).

Where only a bound is given, the exact number is not on record here.

Usually melting point stands for the temperature, or range, at which the solid turns liquid. The compound `Cc1c(N2CCC(C)(N)C2)c(F)cc2c(=O)n(N)c(=O)n(C3CC3)c12.Cl` (stereo not drawn) had a melting point of 237 to 240 °C.

For the compound `COc1c(N2CCCC2)c(F)cc2c(=O)n(N)c(=O)n(C3CC3)c12.Cl`, the melting point fell in the range of 92 to 94 °C.

Take `CN[C@@H](C)[C@@H]1CCN(c2cc3c(c(C)c2F)c(=O)n(N)c(=O)n3C2CC2)C1.Cl`: the melting point was 182 to 185 °C.

In the case of `Cc1c(N2CC3C(N)C3C2)c(F)cc2c(=O)n(N)c(=O)n(C3CC3)c12.Cl` (stereo not drawn), the melting point was in the range of 180 to 182 °C.

With `Cl.Nn1c(=O)c2cc(F)c(N3CCCC3)c(Cl)c2n(C2CC2)c1=O`, the melting point fell in the range of 96 to 98 °C.

Consider `NC1CCN(c2ccc3c(=O)n(N)c(=O)n(C4CC4)c3c2F)C1.O=C(O)C(F)(F)F` (stereo not drawn), for which the melting point lay in the range of 210 to 212 °C.

As for `CCn1c(=O)n(N)c(=O)c2cc(F)c(N3CC[C@@H](C(C)(C)N)C3)cc21.Cl`, the melting point was more than 250 °C.

The compound `Cl.N[C@H]1CCN(c2cc3c(cc2F)c(=O)n(N)c(=O)n3C2CC2)C1` returned a melting point of more than 250 °C.

Compound `COc1cc2c(=O)n(N)c(=O)n(C3CC3)c2c(F)c1N1CCC(N)C1.Cl` (stereo not drawn) had a melting point of 208 to 210 °C.

For the compound `COc1c(N2CCC(CN)C2)c(F)cc2c(=O)n(N)c(=O)n(C3CC3)c12.Cl` (stereo not drawn), the melting point is 180 to 182 °C.

On to `CC1COc2c(N3CC[C@@H]([C@H](C)N)C3)c(F)cc3c(=O)n(N)c(=O)n1c23.Cl` (stereo partly drawn), for which the melting point was in the range of 192 to 194 °C.

Turning to `CC1CCc2c(N3CC[C@@H]([C@H](C)N)C3)c(F)cc3c(=O)n(N)c(=O)n1c23.Cl` (stereo partly drawn), the melting point lay within 197 to 199 °C.

On to `Cl.Nn1c(=O)c2cc(F)c(N3CC4CCNCC4C3)nc2n(C2CC2)c1=O` (stereo not drawn), for which the melting point lay within 200 to 203 °C.

In turn, `Cl.Nn1c(=O)c2cc(F)c(C3CCC4CNCC4N3)nc2n(C2CC2)c1=O` (stereo not drawn) returned a melting point of 200 to 202 °C.

Compound `C[C@H](N)[C@@H]1CCN(c2nc3c(cc2F)c(=O)n(N)c(=O)n3C2CC2)C1.Cl` gave a melting point of more than 260 °C.

The compound `Cl.Nn1c(=O)c2cc(F)c(N3CCC(CNCC(F)(F)F)C3)c(Cl)c2n(C2CC2)c1=O` (stereo not drawn) displayed a melting point of 163 to 164 °C.

Consider `Cl.NCC1(Cc2ccccc2)CCN(c2c(F)cc3c(=O)n(N)c(=O)n(C4CC4)c3c2Cl)C1` (stereo not drawn), for which the melting point was 148 to 150 °C.

Compound `C[C@H](N)[C@@H]1CCN(c2c(F)cc3c(=O)n(N)c(=O)n(C4CC4)c3c2Cl)C1.Cl` yielded a melting point of 164 to 166 °C.

Take `CS(=O)(=O)NCC1CCN(c2c(F)cc3c(=O)n(N)c(=O)n(C4CC4)c3c2Cl)C1.Cl` (stereo not drawn): the melting point was 109 to 112 °C.

As to `Cl.NCC1CCCN(c2c(F)cc3c(=O)n(N)c(=O)n(C4CC4)c3c2Cl)C1` (stereo not drawn), the melting point fell in the range of 131 to 133 °C.

In turn, `CC(C)NCC1CCN(c2c(F)cc3c(=O)n(N)c(=O)n(C4CC4)c3c2Cl)C1.Cl` (stereo not drawn) had a melting point of 125 to 127 °C.

`Cl.NCC1CCN(c2c(Cl)cc3c(=O)n(N)c(=O)n(C4CC4)c3c2Cl)C1` (stereo not drawn): the melting point was in the range of 147 to 149 °C.

Compound `Cc1c(N2CC[C@@H](C(C)(C)N)C2)c(F)cc2c(=O)n(N)c(=O)n(C3CC3)c12.Cl` returned a melting point of 200 to 202 °C.

Compound `COC1(C(C)N)CCN(c2c(F)cc3c(=O)n(N)c(=O)n(C4CC4)c3c2C)C1.Cl` (stereo not drawn) gave a melting point of 190 to 192 °C.

The compound `Cc1c(F)c(N2CC[C@H]([C@@H](C)N)C2)cc2c1c(=O)n(N)c(=O)n2C1CC1.Cl` yielded a melting point of 245 to 247 °C.

`COc1c(N2CCCC(C(C)N)C2)c(F)cc2c(=O)n(N)c(=O)n(C3CC3)c12.Cl` (stereo not drawn) showed a melting point of 198 °C.

`Cc1c(N2CC(C(C)N)C(C)(C)C2)c(F)cc2c(=O)n(N)c(=O)n(C3CC3)c12.Cl` (stereo not drawn): the melting point was determined as 246 °C.

In turn, `Cc1c(N2CCC(N)(c3ccccc3)C2)c(F)cc2c(=O)n(N)c(=O)n(C3CC3)c12.Cl` (stereo not drawn) registered a melting point of 236 °C.

For the compound `COc1c(N2CCC(O)(CN)C2)c(F)cc2c(=O)n(N)c(=O)n(C3CC3)c12.Cl` (stereo not drawn), the melting point was found to be 202 °C.

In turn, `COc1c(N2CC(N)C(OC)C2)c(F)cc2c(=O)n(N)c(=O)n(C3CC3)c12.Cl` (stereo not drawn) had a melting point of more than 250 °C.
